Entries after “also recorded” stand apart in the source; their conditions may differ.
Columns and labels:
mouse brown fat tissue = experiment: lipid histochemistry of fresh fat tissue, Oil Red O staining (positive control tissue); details: for dissolving of mouse fat tissue: 37° C., 24 hrs, compared with untreated fat tissue
Description: (§1) Unfixed, donor eye with AMD drusen was immersed in 30% sucrose in PBS buffer at pH 7.4 for 24 hours at 4° C. for cryoprotection, then embedded in OCT. For cryostat sections, the eye was serially sectioned at 8 μm thickness and stored at −70° C. Drusen were identified under the microscope. Unfixed fresh frozen mouse brown fat tissue was sectioned at 10 μm thickness as the positive control.
Hydroxypropyl β-cyclodextrin selected compound was titered to the best concentration by mouse fat tissue at 37° C. for 24 hrs (Table.2).
(§2) Unfixed frozen human eye drusens were considered closest to the in vivo state of drusen. Mouse brown fat was used for positive control.

[1] = tested on: lipid component of drusen; experiment: lipid histochemistry of drusen in eyes with AMD, Oil Red O staining; set-up: species or system human; details: 40 ml of 25% solution, 37° C., 24 hrs
Description: as §1
(§3) A viable in vitro assay to evaluate compounds with a potential to remove drusen in the eye was explored. Sections with drusen were treated with cyclodextrin for 30 min, 1 hr, 2 hrs, 4 hrs, 15 hrs at room temperature. In a subsequent experiment, sections with drusen were immersed in 40 ml of 25% Hydroxypropyl β-cyclodextrin at 37° C. for 24 hrs.
as §2

drusen = experiment: in vitro drusen removal assay, frozen drusen sections treated with cyclodextrin, H&E staining; set-up: species or system human
Description: as §1, §3, §2

Substance	dissolving of mouse fat tissue (mouse brown fat tissue; 30% solution)	ORO staining of lipid-containing drusen / dissolving the lipid component of drusen [1]	dissolving of fresh mouse fat tissue (mouse brown fat tissue; 25% solution)	dissolving of mouse fat tissue (mouse brown fat tissue; 25%-45% solution)	size of a drusen, H&E 40× (FIG. 1C) (drusen; 25% solution, 2 hours)	change / dissolving of drusen by H&E staining (drusen; 40 ml, 25% (different concentration), 37° C., 24 hrs)
Sulfonyletherbutyl β-cyclodextrin	partial fat tissues were dissolved	–	–	–	–	–
Hydroxypropyl β-cyclodextrin	–	stained negatively; also recorded: has efficacy in dissolving the lipid component of drusen	has efficacy in dissolving fresh mouse fat tissue	has effect on dissolving the partial fat tissue; also recorded: partial fat tissues were dissolved	reduced size	no change; also recorded: could not completely dissolve drusen
